Several values for one entry are separate records, joined by “and”; a condition that tells them apart may be missing. Identical values can stand only once.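 1) Cells in 96-well plates. 2) Compound, 48 h, 5 concentrations. 3) Linear interpolation between surrounding doses. 4) Unreached endpoint = highest concentration. GI50 is the concentration that inhibits growth by half. TGI marks complete inhibition of growth.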

The values that follow come from PubChem BioAssay (NCI).

Test systems include COLO 205 colon; EKVX NSCLC; KM12 colon; M14 melanoma; MALME-3M melanoma; NCI-H226 lung; SN12C renal; U251 CNS.
Holding throughout (test): growth of human tumour cells (NCI), 48 h

`N#Cc1c(NC(=O)CN2CCOCC2)sc2c1CCCC2`: the GI50 with COLO 205 colon, with EKVX NSCLC, with KM12 colon, with M14 melanoma, in the test on MALME-3M melanoma and in the test on NCI-H226 lung was more than 25 µM each time. The GI50 with SN12C renal and in the test with U251 CNS was more than 25 µM throughout. Moreover, the TGI in the test with COLO 205 colon, in the test on EKVX NSCLC, in the test with KM12 colon, with M14 melanoma, in the test on MALME-3M melanoma and in the test with NCI-H226 lung was more than 25 µM throughout. Also, the TGI in the test on SN12C renal and in the test with U251 CNS was more than 25 µM throughout.

With `CNc1ccc(-c2cc(=O)oc3ccc(Cl)cc23)cc1`, the GI50 with COLO 205 colon is 0.278 µM and 0.201 µM; in the test on EKVX NSCLC, 0.589 µM and 0.279 µM; in the test on KM12 colon it was 0.0506 µM and 0.0433 µM; with M14 melanoma, 0.0393 µM and 0.0313 µM; with NCI-H226 lung it was 0.719 µM and 4.05 µM; with U251 CNS, 0.175 µM and 0.0472 µM. For the same compound, the TGI in the test with COLO 205 colon is 1.17 µM and 1.27 µM; in the test on EKVX NSCLC it was more than 100 µM; in the test with KM12 colon it was more than 100 µM; in the test on M14 melanoma, more than 100 µM; with NCI-H226 lung it was more than 100 µM; with SN12C renal, more than 100 µM. Also, the TGI with U251 CNS was more than 100 µM.

As for `C=C(C)[C@@H]1CCC2=C[C@@H](OC2=O)[C@@H](C(=C)C)C(=O)/C=C(/C)C(=O)C1`, the GI50 was 26.3 µM in the test on COLO 205 colon; 52.4 µM in the test on EKVX NSCLC; 24.8 µM with KM12 colon; 20.8 µM in the test on M14 melanoma; 23.8 µM with MALME-3M melanoma; 36.9 µM in the test with NCI-H226 lung. Moreover, the GI50 is 28.6 µM in the test with SN12C renal and 33.4 µM with U251 CNS. Further, the TGI in the test on COLO 205 colon was 56.8 µM; in the test on EKVX NSCLC, more than 100 µM; in the test on KM12 colon, 63.7 µM; with M14 melanoma, 50.5 µM; in the test with MALME-3M melanoma, 71.5 µM; in the test with NCI-H226 lung, more than 100 µM. Besides, the TGI in the test with SN12C renal was 77.3 µM; in the test with U251 CNS, more than 100 µM.

With `Cc1ccccc1N=Nc1c(O)[nH]c2ccccc12`, the TGI in the test on COLO 205 colon, with EKVX NSCLC, in the test with KM12 colon, in the test with M14 melanoma, with NCI-H226 lung and in the test with SN12C renal was more than 100 µM in each case. The same compound showed a TGI in the test with U251 CNS of more than 100 µM.

As for `N#Cc1c(-c2ccccc2)cc(-c2ccccc2)n(CCCCC(=O)NO)c1=O`, the GI50 with COLO 205 colon is 2.74 µM; in the test on EKVX NSCLC it was 2.82 µM; in the test on KM12 colon it was 2.8 µM; in the test on M14 melanoma, 2.76 µM; with MALME-3M melanoma, 1.25 µM; in the test on NCI-H226 lung, 3.98 µM. Further, the GI50 was 2.95 µM in the test with SN12C renal and 2.79 µM with U251 CNS. For the same compound, the TGI in the test on COLO 205 colon stood at 7.76 µM; in the test with EKVX NSCLC it was 11.7 µM; in the test on KM12 colon, 13.6 µM; in the test with M14 melanoma it was 11.6 µM; in the test on MALME-3M melanoma, 13.3 µM; in the test with NCI-H226 lung, 19 µM. The TGI worked out at 11.5 µM in the test on SN12C renal and 11.1 µM in the test with U251 CNS.

Consider `O=C(CCCc1ccccn1)c1ccccc1`, for which the TGI with COLO 205 colon, in the test on EKVX NSCLC, in the test with M14 melanoma, with MALME-3M melanoma, with NCI-H226 lung and in the test with SN12C renal was more than 100 µM throughout. The TGI in the test on U251 CNS was more than 100 µM.

Consider `COc1ccc(-c2cc(/C=C3\C(=O)Nc4ccc(OC)cc43)[nH]n2)cc1`, for which the GI50 with COLO 205 colon is 4.53 µM; in the test on KM12 colon, 1.62 µM; in the test on M14 melanoma, more than 100 µM; in the test on MALME-3M melanoma, more than 100 µM; with NCI-H226 lung it was more than 100 µM; in the test on SN12C renal, more than 100 µM. Further, in the test with U251 CNS, the GI50 was 31.5 µM. Also, the TGI in the test with COLO 205 colon, in the test on KM12 colon, with M14 melanoma, with MALME-3M melanoma, in the test on NCI-H226 lung and in the test with SN12C renal was more than 100 µM in each case. The compound also displayed a TGI with U251 CNS of more than 100 µM.

As to `CN1c2ccccc2S(=O)(=O)n2c(COc3ccc(Cl)cc3)nnc21`, the TGI with COLO 205 colon, in the test on EKVX NSCLC, with KM12 colon, with M14 melanoma, in the test on NCI-H226 lung and in the test on SN12C renal was more than 100 µM throughout. Moreover, the TGI in the test on U251 CNS is more than 100 µM.

For `CC1(C)CC2C=C(C=O)C3(C=O)CC3(C)C2C1` (stereo not given), the TGI with COLO 205 colon is 4.25 µM; with EKVX NSCLC it was 7.5 µM; in the test on KM12 colon, 13.5 µM; in the test with M14 melanoma it was 5.24 µM; in the test with NCI-H226 lung it was 9.18 µM; in the test with SN12C renal it was 8.23 µM. The same compound had a TGI in the test on U251 CNS of 6.45 µM.

In the case of `CCOC(=O)C1=C(C)NC2SC(=O)/C(=C\c3ccccc3)N2C1c1ccccc1` (stereo not given), the GI50 in the test with COLO 205 colon was more than 100 µM; with EKVX NSCLC, more than 100 µM; in the test with KM12 colon it was 73.7 µM; in the test on M14 melanoma, more than 100 µM; in the test with NCI-H226 lung, more than 100 µM; in the test with SN12C renal it was more than 100 µM. Besides, the GI50 in the test on U251 CNS is more than 100 µM. The TGI with COLO 205 colon, in the test on EKVX NSCLC, in the test with KM12 colon, in the test with M14 melanoma, in the test on NCI-H226 lung and in the test on SN12C renal was more than 100 µM each time. In the test on U251 CNS, this compound yielded a TGI of more than 100 µM.

As to `C/C(=C\CCc1ccoc1)CC/C=C(\C)CCCN1CCC(CO)CC1`, the GI50 was 1.94 µM in the test on COLO 205 colon; 2.45 µM in the test with KM12 colon; 1.94 µM in the test with M14 melanoma; 1.79 µM in the test on MALME-3M melanoma; 6.16 µM with NCI-H226 lung; 4.54 µM in the test with SN12C renal. Moreover, the GI50 in the test on U251 CNS was 2.41 µM. Also, the TGI in the test on COLO 205 colon stood at 3.98 µM; in the test on KM12 colon, 5.41 µM; in the test on M14 melanoma, 3.92 µM; in the test with MALME-3M melanoma it was 3.52 µM; in the test on NCI-H226 lung, 22.3 µM; with SN12C renal it was 18.9 µM. Besides, the TGI in the test with U251 CNS stood at 9.24 µM.

As for `N#CN1CCC[C@H]1C(=O)N1CCc2c(-c3[nH]nc4ncccc34)cccc21`, the GI50 was 0.101 µM in the test with EKVX NSCLC; less than 0.01 µM in the test on KM12 colon; less than 0.01 µM with M14 melanoma; 0.0279 µM in the test with MALME-3M melanoma; 0.051 µM in the test with NCI-H226 lung; less than 0.01 µM in the test on SN12C renal. For the same compound, the GI50 in the test with U251 CNS was 0.281 µM. The TGI worked out at 25 µM with EKVX NSCLC; 10.1 µM with KM12 colon; 0.354 µM in the test on M14 melanoma; 16.7 µM in the test on MALME-3M melanoma; 0.219 µM with NCI-H226 lung; 48.2 µM in the test on SN12C renal. In addition, the TGI with U251 CNS turned out to be 2.91 µM.
